Results on 17 compounds are retold here after ChEMBL document CHEMBL4033662, “The computer-aided discovery of novel family of the 5-HT6 serotonin receptor ligands among derivatives of 4-benzyl-1,3,5-triazine” (Eur J Med Chem, 2017).

Experiment [1] has as its target 5-hydroxytryptamine receptor 6 (Homo sapiens, UniProt P50406). The experiment can be described thus: Displacement of [3H]-LSD from human 5-HT6R expressed in HEK293 cells. The format is cell-based.
Experiment [2] has as its system Rattus norvegicus. The experiment can be described thus: Antidepressant activity in Wistar rat assessed as decrease in immobility time at 0.3 mg/kg, ip administered 60 mins prior to testing measured for 5 mins by forced swim test. The format is functional. Also noted: scale not given: the % may be the effect or the level left.

Sequence of 5-hydroxytryptamine receptor 6 (P50406 whole entry): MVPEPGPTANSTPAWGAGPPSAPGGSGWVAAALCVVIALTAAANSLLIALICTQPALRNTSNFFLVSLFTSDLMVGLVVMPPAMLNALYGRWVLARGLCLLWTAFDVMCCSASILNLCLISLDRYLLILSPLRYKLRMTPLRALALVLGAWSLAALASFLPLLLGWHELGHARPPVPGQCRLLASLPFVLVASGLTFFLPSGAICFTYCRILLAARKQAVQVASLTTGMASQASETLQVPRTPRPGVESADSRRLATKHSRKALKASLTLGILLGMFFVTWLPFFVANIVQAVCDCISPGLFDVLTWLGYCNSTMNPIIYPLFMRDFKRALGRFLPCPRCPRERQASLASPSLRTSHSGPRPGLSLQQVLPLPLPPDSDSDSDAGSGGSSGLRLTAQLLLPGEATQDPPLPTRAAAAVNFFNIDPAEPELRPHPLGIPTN

The term Ki denotes the dissociation constant of the complex between target and ligand, obtained from inhibition or displacement. For the compound `CN1CCN(c2nc(N)nc(Cc3ccccc3)n2)CC1`, affinity in experiment [1] was put at a Ki of 95 nM.

As for `CN1CCN(c2nc(N)nc(Cc3c[nH]c4ccccc34)n2)CC1`, the affinity in experiment [1], expressed as Ki, was 22 nM. The Activity in experiment [2] was 37%.

`CN1CCN(c2nc(N)nc(Cc3cccs3)n2)CC1` yielded a Ki in experiment [1] of 305 nM.

In experiment [1], `CN1CCN(c2nc(N)nc(Cc3cccc(Cl)c3)n2)CC1` yielded a Ki of 28 nM. Besides, the Activity in experiment [2] is 29%.

On to `Cc1ccc(Cc2nc(N)nc(N3CCN(C)CC3)n2)cc1`, for which the inhibition constant (Ki) in experiment [1] was 64 nM.

As for `CN1CCN(c2nc(N)nc(Cc3cccc(F)c3)n2)CC1`, the affinity in experiment [1], expressed as Ki, was 64 nM.

Take `COc1ccc(Cc2nc(N)nc(N3CCN(C)CC3)n2)cc1`: in experiment [1], the inhibition constant (Ki) was 440 nM.

In experiment [1], `COc1ccccc1Cc1nc(N)nc(N2CCN(C)CC2)n1` yielded a Ki of 193 nM.

Consider `Cc1ccccc1Cc1nc(N)nc(N2CCN(C)CC2)n1`, for which, in experiment [1], affinity was put at a Ki of 80 nM.

`CN1CCN(c2nc(N)nc(Cc3ccc(F)cc3)n2)CC1` had a Ki in experiment [1] of 100 nM.

For `CN1CCN(c2nc(N)nc(Cc3ccc(Cl)c(Cl)c3)n2)CC1`, in experiment [1], the affinity, expressed as Ki, was 32 nM.

Turning to `Cc1cccc(Cc2nc(N)nc(N3CCN(C)CC3)n2)c1`, the Activity in experiment [2] is reported as 30%.

With `CN1CCN(c2nc(N)nc(Cc3ccncc3)n2)CC1`, the affinity in experiment [1], expressed as Ki, was 1830 nM.

Turning to `CN1CCN(c2nc(N)nc(Cc3ccccc3Cl)n2)CC1`, affinity in experiment [1] was put at a Ki of 56 nM.

For the compound `CN1CCN(c2nc(N)nc(Cc3ccccc3F)n2)CC1`, affinity in experiment [1] was put at a Ki of 88 nM.

In turn, `CN1CCN(c2nc(N)nc(Cc3cccc4ccccc34)n2)CC1` came in with a Ki in experiment [1] of 20 nM.

Compound `COc1cccc(Cc2nc(N)nc(N3CCN(C)CC3)n2)c1` displayed a Ki in experiment [1] of 158 nM.
